Converted amounts (≈) assume the structure as drawn. Where a name gives a salt, the structure may show the parent alone. Read-outs that look alike come from different tables or passages of the source. Each block holds one compound with its values, some of them ahead of it.
Assays:
deep vein thrombosis = test: Rats model of deep vein thrombosis; type: in vivo, SD rats; settings: for antithrombotic efficacy, Form I and dabigatran etexilate compared: at the same dose, oral
Text: Experimental animals: SD rats (body weight 220 to 250 g, sex: male)
The thrombus was removed and weighed.

[1] = Blood drug level in rats model of deep vein thrombosis; type: in vivo, SD rats
[2] = Moisture adsorption content / hygroscopicity; type: physicochemical
[3] = Form III stability: mechanical milling and storage at 60° C./sealed condition; type: physicochemical
[4] = DVS (Dynamic Vapor Sorption) water absorption; type: physicochemical
pKa = type: physicochemical
Partition coefficient = type: physicochemical
Solubility = type: physicochemical
[5] = intravenous infusion of 0.1 mg/kg/h in rats

blood drug levels of compound V compared with oral 5 mg/kg Form I [1, 5]: comparable
SMILES: CC(C)C[C@@H](NCC(=O)O)C(=O)N1CCC[C@H]1C(=O)NCc1ccc(C(=N)N)cc1 [Compound V]
antithrombotic effect compared with oral 5 mg/kg Form I (deep vein thrombosis; [5]): comparable

SMILES: CCCCCCOC(=O)N=C(N)c1ccc(NCc2nc3cc(C(=O)N(CCC(=O)OCC)c4ccccn4)ccc3n2C)cc1 [Dabigatran etexilate, reference compound]
antithrombotic efficacy, Form I and dabigatran etexilate compared (deep vein thrombosis; rats): basically equivalent

SMILES: CCCCCCOC(=O)NC(=N)c1ccc(CNC(=O)[C@@H]2CCCN2C(=O)[C@@H](CC(C)C)NCC(=O)OCC)cc1 [Form A of the monohydrochloride]
Moisture adsorption content [2]: 0.5 wt %

SMILES: CCCCCCOC(=O)NC(=N)c1ccc(CNC(=O)[C@@H]2CCCN2C(=O)[C@@H](CC(C)C)NCC(=O)OCC)cc1 [Form B of the monohydrochloride]
Hygroscopicity [2]: (Hygroscopic)
Moisture adsorption content [2]: 3.0 wt %

SMILES: CCCCCCOC(=O)NC(=N)c1ccc(CNC(=O)[C@@H]2CCCN2C(=O)[C@@H](CC(C)C)NCC(=O)OCC)cc1 [Form III]
purity after storage ([3]; 60° C./sealed condition for 7 days): 89.35%
purity before storage ([3]; before storage at 60° C./sealed condition): 95.81%

SMILES: CCCCCCOC(=O)NC(=N)c1ccc(CNC(=O)[C@@H]2CCCN2C(=O)[C@@H](CC(C)C)NCC(=O)OCC)cc1 [Form I]
Hygroscopicity [2]: Hygroscopic
form of sample after DVS test ([4]; after DVS test): converted to amorphous form
behaviour of sample at high humidity (DVS) ([4]; high humidity): undergoes deliquescence
pKa1 (pKa): 4.94
pKa2 (pKa): 5.54
pKa3 (pKa): 10.61
logP (Partition coefficient): > 3.38
Log D7.4 (Partition coefficient; pH 7.4): 2.06
solubility (Solubility; BA, organic solvent or mixture, read-out: Solubility): < 0.3 mg/mL
solubility (Solubility; acetonitrile and dichloromethane): 9.0, 10.0, 11.0, 12.0 and 13.0), readily soluble
solubility (Solubility; buffer solutions with different pH values (1.2, 2.0, 3.0, 4.0, 5.0, 6.0, 7.0, 8.0, 9.0, 10.0, 11.0, 12.0 and 13.0)): Highly soluble in buffer solutions with different
solubility (Solubility; organic solvent or mixture, AC (Acetic acid), read-out: Solubility): > 250 mg/mL
solubility (Solubility; organic solvent or mixture, ACN (Acetonitrile), read-out: Solubility): > 250 mg/mL
solubility (Solubility; organic solvent or mixture, DMSO (Dimethyl sulfoxide), read-out: Solubility): > 250 mg/mL
solubility (Solubility; organic solvent or mixture, Diox (1,4-Dioxane), read-out: Solubility): ~125 mg/mL (≈ 218 mM)
solubility (Solubility; organic solvent or mixture, EtOH (Ethanol), read-out: Solubility): > 250 mg/mL
solubility (Solubility; organic solvent or mixture, Hept (n-Heptane), read-out: Solubility): < 0.3 mg/mL
solubility (Solubility; organic solvent or mixture, IPA (Isopropyl alcohol), read-out: Solubility): ~167 mg/mL (≈ 291 mM)
solubility (Solubility; organic solvent or mixture, IPAc (Isopropyl acetate), read-out: Solubility): ~0.5 mg/mL (≈ 0.871 mM)
solubility (Solubility; organic solvent or mixture, MEK (Methyl ethyl ketone), read-out: Solubility): ~1.6 mg/mL (≈ 2.79 mM)
solubility (Solubility; organic solvent or mixture, MTBE (Methyl tert-butyl ether), read-out: Solubility): < 0.3 mg/mL
solubility (Solubility; organic solvent or mixture, NBA (n-Butanol), read-out: Solubility): ~167 mg/mL (≈ 291 mM)
solubility (Solubility; organic solvent or mixture, THF (Tetrahydrofuran), read-out: Solubility): ~11.1 mg/mL (≈ 19.3 mM)
solubility (Solubility; organic solvent or mixture, Tol (Toluene), read-out: Solubility): < 0.3 mg/mL
solubility (Solubility; water, read-out: Solubility): > 250 mg/mL
Thrombosis inhibition rate (deep vein thrombosis; 10 mg/kg, oral gavage, rats): 70.0%
antithrombotic efficacy, Form I and dabigatran etexilate compared (deep vein thrombosis; rats): basically equivalent
blood drug levels of compound V ([1]; oral administration of 2.5 mg/kg of Form I to rats): 190.1 ng/mL
blood drug levels of compound V ([1]; oral administration of 5 mg/kg of Form I to rats): 181.3 ng/mL
blood drug levels of compound V ([1]; oral administration of 10 mg/kg of Form I to rats): 341.9 ng/mL
blood drug levels of compound V ([1]; oral administration of 20 mg/kg of Form I to rats): 609.7 ng/mL

SMILES: CCCCCCOC(=O)NC(=N)c1ccc(CNC(=O)[C@@H]2CCCN2C(=O)[C@@H](CC(C)C)NCC(=O)OCC)cc1 [dihydrochloride]
aqueous solubility (Solubility; water): excellent aqueous solubility

SMILES: CCCCCCOC(=O)NC(=N)c1ccc(CNC(=O)[C@@H]2CCCN2C(=O)[C@@H](CC(C)C)NCC(=O)OCC)cc1 [free alkali of the compound of formula II]
aqueous solubility (Solubility; water): insoluble in water

SMILES: CCCCCCOC(=O)NC(=N)c1ccc(CNC(=O)[C@@H]2CCCN2C(=O)[C@@H](CC(C)C)NCC(=O)OCC)cc1 [monohydrochloride]
aqueous solubility (Solubility; water): excellent aqueous solubility

From patent US20260224526A1, “SALT OF DIPEPTIDE COMPOUND, PREPARATION METHOD THEREOF, AND USE THEREOF” (ZHEJIANG HUAHAI PHARMACEUTICAL CO., LTD., priority 2023, published 2026)
